Measured values as given in patent US20230257385A1, “SALT AND SOLID FORMS OF TABERNANTHALOG” (priority 2021, published 2023).
Structures can show the parent of a compound that is named as a salt.

Tests used:
Assay type in all cases: physicochemical
[1] = Stability examination of supplied monofumarate material at 40° C./75% RH (Example 5, Experiment Reference 2); conditions: 75% RH at 40° C., up to 5 w
[2] = Qualitative solubility screen of the tabernanthalog monofumarate salt in solvents (Example 5, Experiment Reference 1; Example 2)
Procedure: Consistent with Example 1, samples were dissolved in various solvents/solvent systems and cooled to isolate solid material.
Tabernanthalog fumarate dissolved at 5 vol (200 mg/mL) only at reflux in two solvents, water and methanol. At 15 vol the product dissolved in both refluxing butanol and ethanol. Consistent with Example 1, the dissolved samples were cooled. On cooling, each of the four effective solvents yielded solid material. The solids thus obtained were analyzed by XRPD yielding diffractograms with novel peaks from products isolated from each of the four protic solvents.
The tabernanthalog monofumarate salt (Pattern #1, Sample Reference 1, 25 mg, 1 wt) was weighed out in 20 separate vials to qualitatively examine the solubility in an array of diverse solvents. […] If insoluble at 5 vol, the solvent quantity was increased to 10 vol, 15 vol and 20 vol of the respective solvent. […] The insoluble suspensions were additionally worked up for XRPD analysis. The resultant powder patterns were subsequently cross-referenced against the input supplied material.

[3] = Standing of solid forms over time (form by XRPD)
Description: FIG. 844 depicts the XRPD profile of Experiment 1-Sample D2 (Tabernanthalog·Sorbate, Form A).

[4] = Amorphous study (freeze drying, evaporation, spray drying, bead milling) of monofumarate and sorbate
Description: The purpose of this study was to generate amorphous material to be characterized and used in water activity studies. To achieve this, the two salts were exposed to a variety of techniques in attempts to generate the amorphous forms, including freeze drying, evaporation, vacuum desiccation and cryodesiccation spray drying. These techniques were not successful for the two salts Tabernanthalog·Monofumarate and Tabernanthalog·Sorbate.
Bead milling was attempted to generate the amorphous form of Tabernanthalog·Sorbate (Tabernanthalog·Sorbate, Form A). The salt underwent neat milling and separately with the addition of tetradecafluorohexane (TDFH). The following experiments were performed: Experiment 6-Sample A1 (30 Hz, 2 h), Experiment 6-Sample A2 (30 Hz, 5.5 h) and Experiment 6-Sample A3 (30 Hz 1 h, TDFH), the products from each experiment was analysed by XRPD to determine the extent of crystallinity (FIG. 812). None of the experiments provided amorphous material.
Each salt was charged to a 7 ml vial (50 mg, 1.0 wt). To the vial containing Tabernanthalog·Monofumarate (Tabernanthalog·Monofumarate), was charged water (10.0 vol), to fully dissolve the sample. Tabernanthalog·Sorbate (A1270-076-A1) was taken-up in ethanol/water (15% v/v, 10 vol), a further charge of water (1.0 ml), was added to ensure that the sample dissolved.
Vials containing the salt solutions were placed on the freeze drier apparatus overnight, and the cryo-desiccated products were recovered the following morning and analysed by XRPD each product remained crystalline.
Tabernanthalog·Monofumarate (A1272−082-A2, 51.1 mg, 1.0 wt) was charged to a 7 ml scintillation vial followed by THE (2 ml, […]), the suspension was heated to 50° C., until full dissolution was observed. The vial was stoppered by foil and a pin hole was pierced in the top. The vial was located under a steady N2 stream.
Tabernanthalog·Sorbate (A1270−076-A1, 99.4 mg, 1.0 wt) was charged to a 7 ml scintillation vial, followed by hexafluoroisopropanol (HFIPA, 5.0 vol, 0.5 ml), after which, the sample fully dissolved. The cap was replaced by foil and pierced on the top. Solvent was allowed to evaporate, to afford a dry, brown solid that was analysed by XRPD yielding crystalline pattern #7. Sample were dried under N2 stream for 5 h and reanalysed by XRPD, remaining as pattern #7
Tabernanthalog·Sorbate (A1270−076-A1, 50.0 mg, 1.0 wt) was charged to a 7 ml scintillation vial followed by hexafluoroisopropanol (HFIPA, 0.5 ml, 10 vol), to yield a clear solution. The solution was concentrated to dryness, by rotary evaporation, yielding an oil, that was allowed to stand undisturbed overnight.
Tabernanthalog·Sorbate (A1270−076-A1, 50.0 mg, 1.0 wt) was charged to a 7 ml scintillation vial, followed by methanol (300 μl, 6.0 vol). The solution was clarified by filtration into a 7 ml scintillation vial, containing diethyl ether (1.0 ml, 20.0 vol).
Tabernanthalog·Sorbate (A1270−076-A1, 102 mg, 1 wt) was charged to a 7.0 ml scintillation vial followed by methanol (1.9 ml, 19.0 vol). The solution was loaded into the spray drier apparatus.
The procedure yielded a brown powder (30 mg, 30% th.).
Tabernanthalog·Sorbate (A1270-076-A1, Form A) was charged to a 1.5 ml steel milling-vessel with a single 5 mm ball bearing. The sample was milled for 5.5 h at 30 Hz and yielded an off-white powder, that was analysed by XRPD, no change in crystallinity.

[5] = Thermal study: glass transition temperature (Tg) of amorphous monofumarate and sorbate
Procedure: Each salt was analysed by DSC and TGA to determine the Tg of the amorphous form. Amorphous forms were generated by thermocycling the salt past the melt temperature, cooling the sample, and once cooled the samples were reheated. Open pan and sealed pan DSC were utilised, open pan DSC were heated past the melt event, cooled, and left to stand under ambient conditions overnight.
Sealed pans were immediately cycled with no time left to stand.
TGA (open pan) samples were analysed by thermocycle, with no time for the sample to stand under ambient conditions.
The amorphous forms were generated in these studies and characterised with their Tg being measured.
A hot stage microscope heating block was used to generate the amorphous phase in-situ, to allow analysis by XRPD. A silicon XRPD sample plate was loaded with the appropriate salt. The plate was heated past the melt event, removed from the hot stage microscope block and cooled to ambient in air and analysed by XRPD to ensure that the amorphous form was generated. The amorphous material was then analysed by ^1H NMR and LC-MS to ensure there was no change in chemical composition.
Two DSC pans were charge with the appropriate salt (Tabernanthalog·Sorbate, A1270−076-A1 and Tabernanthalog·Monofumarate, Tabernanthalog·Monofumarate), the first DSC pan was not sealed (open pan DSC), the second was sealed (hermetic sealed pan DSC). The open pan DSC was cycled from 20° C. to just after the melt event for each, cooled to −20° C. and left to stand under ambient conditions over night. The open pan DSC was then heated to just before the thermal degradation event (Tabernanthalog·Sorbate ca. 160° C., Tabernanthalog·Monofumarate ca. 210° C.) The hermetic sealed DSC was heated from 20° C. to just after the melt event, cooled to −20° C. then headed to just before the same degradation event.
Two TGA crucibles were charged with the appropriate salt (Tabemanthalog·Sorbate, A1270-076-A1, Tabernanthalog·Monofumarate, Tabernanthalog·Monofumarate), both were thermocycled from 20° C. to past the melt event and then cooled to −20° C., each pan was then immediately heated to just before the degradation event to measure the Tg event.

[6] = Stability assessment at 40° C./75% RH (open vial / double bagged open vial); conditions: 4-to-5-week period
Procedure: FIG. 62 depicts the XRPD diffractogram overlay of the time point monitoring of 2-A (open vial) at 75% RH at 40° C. Overlay of, from bottom to top, the tabernanthalog monofumarate (Sample Reference 1, t=0), 2-A1 (t=3 h), 2-A2 (t=24 h), 2-A3 (t=48 h), 2-A4 (t=7 days), 2-A5 (t=2 weeks), 2-A6 (t=3 weeks), 2-A7 (t=4 weeks), 2-A8 (t=5 weeks).
FIG. 63 depicts the XRPD diffractogram overlay of the time point monitoring of 2-B (double bagged open vial) at 75% RH at 40° C. Overlay of, from bottom to top, the tabernanthalog monofumarate salt (Sample Reference 1, t=0), 2-B1 (t=3 h), 2-B2 (t=24 h), 2-B3 (t=48 h), 2-B4 (t=7 days), 2-B5 (t=2 weeks), 2-B6 (t=3 weeks), 2-B7 (t=4 weeks), 2-B8 (t=5 weeks).

[7] = Amorphisation activity: Antisolvent/N2 Flow, 50 mg
[8] = Amorphisation activity: Freeze dry, 50 mg
[9] = Amorphisation activity: HFIP Evaporation, 50 mg
[10] = Amorphisation activity: Milling, 50 or 100 mg
[11] = Amorphisation activity: Rotary Vac (MeOH), 50 mg
[12] = Amorphisation activity: Spray drying (15% EtOH/Water), 100 mg
[13] = Amorphisation activity: Spray drying (MeOH), 100 mg
[14] = Amorphisation activity: THF/N2, 50 mg

In the case of `COc1ccc2c3c([nH]c2c1)CCN(C)CC3` [tabernanthalog monofumarate salt, 8-methoxy-3-methyl-1H,2H,3H,4H,5H,6H-azepino[4,5-b]indole fumarate], the “physical and chemical stability” value ([1]; open vial and double polyethene bagged, XRPD, HPLC, TGA, DSC, fumarate) is reported as “physically and chemically stable”, the “change in chemical purity (HPLC)” value [1] is reported as “did not show significant changes in chemical purity” and the “solubility in common solvents” value ([2]; variety of solvents) is reported as “sparingly soluble in most of the common solvents investigated”. The solubility ([2]; water, methanol (two separate solvents), water, thermodynamic from solid, reflux, read-out: soluble in methanol/water at reflux) was no less than 200 mg/mL.
In the case of `COc1ccc2c3c([nH]c2c1)CCN(C)CC3` [Tabernanthalog•Sorbate], the Outcome ([3]; amorphous Experiment 1-Sample D1 standing overnight, ambient) is reported as “Crystalline”, the “Form by XRPD” value [4, 7] is reported as “Form A” and the Outcome [4, 7] is reported as “Crystalline”. For the same compound, the “Form by XRPD” value [4, 8] was “Form A”, the Outcome [4, 8] was “Crystalline” and the “Form by XRPD” value [4, 9] was “Pattern #7”. For the same compound, the Outcome [4, 9] was “Crystalline and Gum”, the “Form by XRPD” value ([4]; Amorphisation activity: Hot Melt Extrusion (Overnight), 250 mg) was “Form A” and the “Form by XRPD” value ([4]; Amorphisation activity: Hot Melt Extrusion, 250 mg) was “Form A”. For the same compound, the “Form by XRPD” value [4, 10] was “Form A”, the Outcome [4, 10] was “Crystalline” and the “Form by XRPD” value [4, 11] was “Form A”. The Outcome [4, 11] was “Crystalline”, the “Form by XRPD” value [4, 12] was “Form A” and the Outcome [4, 12] was “Crystalline”. For the same compound, the “Form by XRPD” value [4, 13] was “Form A”, the Outcome [4, 13] was “Crystalline” and the “Form by XRPD” value [4, 14] was “Form A”. The Outcome [4, 14] was “Crystalline”, the Outcome ([5]; Hot plate heat up, sorbate 20 to 170 ° C., monofumarate 20 to 210 ° C.) was “Amorphous” and the Outcome ([5]; Hot stage plate heat up, sorbate 20 to 170 ° C., monofumarate 20 to 210 ° C.) was “Amorphous”. The Outcome ([5]; Open Pan DSC, sorbate 20 to 165 to −20, O/N 20 to 230 ° C., monofumarate 20 to 210 to −20, O/N 20 to 210 ° C.) was “Amorphous”, the Outcome ([5]; Sealed DSC, sorbate 20 to 165 to −20 to 230 ° C., monofumarate 20 to 210 to −20 to 210 ° C.) was “Amorphous” and the Outcome ([5]; TGA, sorbate 20 to 165 to −20 to 230 ° C., monofumarate 20 to 210 to −20 to 210 ° C.) was “Amorphous”. For the same compound, the “Glass temperature (Tgs)” value ([5]; amorphous form generated in situ, sealed DSC thermocycle (Sample B1)) was 22 °C.
For `C/C=C/C=C/C(=O)O.COc1ccc2c3c([nH]c2c1)CCN(C)CC3` [Experiment 1-Sample D1], the “form by XRPD after standing overnight in ambient conditions” value ([3]; amorphous input, overnight, ambient conditions) was “crystalline material”.
In the case of `COc1ccc2c3c([nH]c2c1)CCN(C)CC3` [tabernanthalog monofumarate Pattern #1], the stability assessment [6] is reported as “no evidence for hydrate formation, chemical degradation or disproportionation”.
